Laboratory results published in US12064426B2, “Selective inhibitors of ROCK1 and ROCK2 protein kinases and uses thereof” (GENOSCO Inc., priority 2021, dated 2024).

What was measured:
[1] = target: T1, Recombinant ROCK1 (amino acids 1-477) (Homo sapiens, UniProt Q13464); assay: ROCK inhibition assay, LANCE Ultra TR-FRET kinase assay (ROCK1); type: biochemical; settings: 1 μM ATP, 50 nM ULight-CREBtide substrate
T1 construct: Recombinant ROCK1 (amino acids 1-477); by word order, ROCK1 from Carna Biosciences
T1 sequence (Q13464 1-477): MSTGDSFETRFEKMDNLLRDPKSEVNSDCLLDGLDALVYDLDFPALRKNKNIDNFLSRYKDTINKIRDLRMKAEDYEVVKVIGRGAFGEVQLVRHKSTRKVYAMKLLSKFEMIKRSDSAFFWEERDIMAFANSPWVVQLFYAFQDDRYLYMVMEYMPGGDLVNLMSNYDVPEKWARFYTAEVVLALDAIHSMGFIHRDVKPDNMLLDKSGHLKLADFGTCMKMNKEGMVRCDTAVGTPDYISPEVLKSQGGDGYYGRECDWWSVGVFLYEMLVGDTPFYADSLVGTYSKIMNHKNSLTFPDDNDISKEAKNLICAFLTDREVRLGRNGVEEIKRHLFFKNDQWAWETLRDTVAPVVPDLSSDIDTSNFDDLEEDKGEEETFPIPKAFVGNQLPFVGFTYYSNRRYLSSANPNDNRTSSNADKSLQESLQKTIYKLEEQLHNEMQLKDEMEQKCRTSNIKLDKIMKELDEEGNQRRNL
Description: (§1) Kinase IC50 was determined through an in vitro assay based on LANCE Ultra TR-FRET (Time-Resolved Fluorescence Resonance Energy Transfer) homogeneous technologies method (Perkin Elmer). Recombinant ROCK1 (amino acids 1-477) and ROCK2 (amino acids 5-554) proteins were purchased from Carna Biosciences and SignalChem. Compound activities were measured by Envision and IC50s were calculated. The assays were performed in white LUMITRAC™ 200 96 well half-area microplates from Greiner Bio-One. The kinase reaction buffer consisted of 50 mM HEPES pH 7.5, 1 mM EGTA, 10 mM MgCl2, 2 mM DTT and 0.01% Tween-20. Kinases were incubated with 50 nM (ULight-CREBtide) substrate in the presence of 1 (ROCK1) or 4 (ROCK2) μM ATP. The kinase reaction was carried out for 1 hour before addition of a stopping buffer to a final of 10 mM EDTA and 0.6 nM of LANCE Ultra Europium anti-phospho-CREB (Ser133) antibody (PerkinElmer TRF0200) in LANCE detection buffer. All assay incubations were performed at room temperature, and the microplates were sealed with polyester film during that time. The reaction was incubated for 1 hour, and the signal was read in Envision in TR-FRET mode (excitation at 320 nm and emission at 615/665 nm).
(§2) As used herein, a way to describe potency of inhibitory activity (nM) is a value of inhibitory activity at 50% (IC50).

[2] = target: T2, Recombinant ROCK2 (amino acids 5-554) (Homo sapiens, UniProt O75116); assay: ROCK inhibition assay, LANCE Ultra TR-FRET kinase assay (ROCK2); type: biochemical; settings: 4 μM ATP, 50 nM ULight-CREBtide substrate
T2 construct: ROCK2 (amino acids 5-554); by word order, ROCK2 from SignalChem
T2 sequence (O75116 5-554): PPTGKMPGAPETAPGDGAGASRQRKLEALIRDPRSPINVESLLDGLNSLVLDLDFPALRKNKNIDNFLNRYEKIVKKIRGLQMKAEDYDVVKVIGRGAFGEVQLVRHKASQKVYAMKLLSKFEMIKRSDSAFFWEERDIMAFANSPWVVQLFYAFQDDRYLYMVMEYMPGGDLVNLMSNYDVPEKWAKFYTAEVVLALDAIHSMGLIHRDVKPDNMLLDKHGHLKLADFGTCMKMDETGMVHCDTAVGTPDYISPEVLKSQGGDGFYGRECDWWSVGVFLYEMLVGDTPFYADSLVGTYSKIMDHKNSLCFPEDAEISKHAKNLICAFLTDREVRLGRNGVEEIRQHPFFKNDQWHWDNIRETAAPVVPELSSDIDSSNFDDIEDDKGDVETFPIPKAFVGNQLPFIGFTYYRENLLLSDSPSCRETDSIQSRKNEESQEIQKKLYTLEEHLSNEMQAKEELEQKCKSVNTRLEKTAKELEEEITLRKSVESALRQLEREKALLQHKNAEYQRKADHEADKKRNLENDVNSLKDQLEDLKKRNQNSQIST
Description: as §1, §2

SMILES | IC50 [1] | IC50 [2]
COc1cccc(CN2CCc3cc(-c4cn[nH]c4)ccc3C2=O)c1 [Compound 1, 2-(3-methoxybenzyl)-6-(1H-pyrazol-4-yl)-3,4-dihydroisoquinolin-1(2H)-one] | > 501 nM | 100 to 500 nM
COc1cccc(Cn2ccc3cc(-c4cn[nH]c4)ccc3c2=O)c1 [Compound 2, 2-(3-methoxybenzyl)-6-(1H-pyrazol-4-yl)isoquinolin-1(2H)-one] | 101 to 500 nM | 10 to 100 nM
O=c1c2ccc(-c3cn[nH]c3)cc2ccn1Cc1cccc(O)c1 [Compound 3, 2-(3-hydroxybenzyl)-6-(1H-pyrazol-4-yl)isoquinolin-1(2H)-one] | 101 to 500 nM | 10 to 100 nM
COc1cccc(Cn2ccc3cc(-c4c[nH]nc4C)ccc3c2=O)c1 [Compound 4] | 11 to 100 nM | < 10 nM
Cc1n[nH]cc1-c1ccc2c(=O)n(Cc3cccc(O)c3)ccc2c1 [Compound 5] | 101 to 500 nM | 10 to 100 nM
COc1cccc(Cn2ccc3cc(-c4c[nH]nc4C(F)(F)F)ccc3c2=O)c1 [Compound 6] | 11 to 100 nM | < 10 nM
O=c1c2ccc(-c3c[nH]nc3C(F)(F)F)cc2ccn1Cc1cccc(O)c1 [Compound 7] | 101 to 500 nM | 10 to 100 nM
CC(c1cccc(O)c1)n1ccc2cc(-c3c[nH]nc3C(F)(F)F)ccc2c1=O (stereo not shown) [Compound 8] | 101 to 500 nM | 10 to 100 nM
COc1cccc(Cn2ccc3cc(-c4conc4C)ccc3c2=O)c1 [Compound 9] | 11 to 100 nM | < 10 nM
COc1cccc(Cn2ccc3cc(-c4ccnn4C)ccc3c2=O)c1 [Compound 11] | 11 to 100 nM | < 10 nM
COc1cccc(Cn2ccc3cc(-c4c[nH]nc4C(F)F)ccc3c2=O)c1 [Compound 13] | 11 to 100 nM | < 10 nM
O=c1c2ccc(-c3c[nH]nc3C(F)F)cc2ccn1Cc1cccc(O)c1 [Compound 14] | 11 to 100 nM | < 10 nM
CC(c1cccc(O)c1)n1ccc2cc(-c3c[nH]nc3C(F)F)ccc2c1=O (stereo not shown) [Compound 15] | 11 to 100 nM | < 10 nM
COc1cc(F)cc(Cn2ccc3cc(-c4c[nH]nc4Cl)ccc3c2=O)c1 [Compound 17] | 11 to 100 nM | < 10 nM
COc1cccc(Cn2ccc3cc(-c4c[nH]nc4Cl)ccc3c2=O)c1 [Compound 18] | 11 to 100 nM | < 10 nM
COc1cccc(C(C)n2ccc3cc(-c4c[nH]nc4Cl)ccc3c2=O)c1 (stereo not shown) [Compound 19] | < 10 nM | < 10 nM
O=c1c2ccc(-c3c[nH]nc3Cl)cc2ccn1Cc1cccc(O)c1 [Compound 20] | < 10 nM | < 10 nM
CC(c1cccc(O)c1)n1ccc2cc(-c3c[nH]nc3Cl)ccc2c1=O (stereo not shown) [Compound 21] | 11 to 100 nM | < 10 nM
O=c1c2ccc(-c3ccncc3)cc2ccn1Cc1cccc(O)c1 [Compound 23] | > 501 nM | 100 to 500 nM
COc1cccc(C(C)n2ccc3cc(-c4ccnc(N)c4)ccc3c2=O)c1 (stereo not shown) [Compound 26] | 101 to 500 nM | 10 to 100 nM
O=C(NCCc1ccccn1)c1cccc(Cn2ccc3cc(-c4cn[nH]c4)ccc3c2=O)c1 [Compound 27, 3-((1-oxo-6-(1H-pyrazol-4-yl)isoquinolin-2(1H)-yl)methyl)-N-(2-(pyridin-2-yl)ethyl)benzamide] | 11 to 100 nM | < 10 nM
CC(C)NC(=O)c1cccc(Cn2ccc3cc(-c4cn[nH]c4)ccc3c2=O)c1 [Compound 28] | 101 to 500 nM | 10 to 100 nM
O=C(Nc1ccccc1)c1cccc(Cn2ccc3cc(-c4cn[nH]c4)ccc3c2=O)c1 [Compound 29] | > 501 nM | 100 to 500 nM
O=C(NCc1ccccc1)c1cccc(Cn2ccc3cc(-c4cn[nH]c4)ccc3c2=O)c1 [Compound 30] | > 501 nM | 100 to 500 nM
Cc1n[nH]cc1-c1ccc2c(=O)n(Cc3cccc(C(=O)Nc4ccn(C)n4)c3)ccc2c1 [Compound 32] | 101 to 500 nM | < 10 nM
Cc1n[nH]cc1-c1ccc2c(=O)n(Cc3cccc(C(=O)NCc4cccc(NS(C)(=O)=O)c4)c3)ccc2c1 [Compound 33] | > 501 nM | 100 to 500 nM
Cc1n[nH]cc1-c1ccc2c(=O)n(Cc3cccc(C(=O)Nc4cccc(S(N)(=O)=O)c4)c3)ccc2c1 [Compound 34] | > 501 nM | 100 to 500 nM
Cc1n[nH]cc1-c1ccc2c(=O)n(Cc3cccc(C(=O)Nc4cccc(OC(F)(F)F)c4)c3)ccc2c1 [Compound 35] | > 501 nM | 100 to 500 nM

SMILES | IC50 [1] | IC50 [2]
Cc1n[nH]cc1-c1ccc2c(=O)n(Cc3cccc(C(=O)Nc4ccc(S(N)(=O)=O)cc4)c3)ccc2c1 [Compound 36] | > 501 nM | 100 to 500 nM
Cc1n[nH]cc1-c1ccc2c(=O)n(Cc3cccc(C(=O)Nc4ccc(NS(C)(=O)=O)cc4)c3)ccc2c1 [Compound 37] | > 501 nM | 100 to 500 nM
Cc1n[nH]cc1-c1ccc2c(=O)n(Cc3cccc(C(=O)Nc4ccccc4OC(F)(F)F)c3)ccc2c1 [Compound 38] | > 501 nM | 100 to 500 nM
Cc1n[nH]cc1-c1ccc2c(=O)n(Cc3cccc(C(=O)Nc4ccc(F)nc4)c3)ccc2c1 [Compound 39] | 101 to 500 nM | 10 to 100 nM
Cc1n[nH]cc1-c1ccc2c(=O)n(Cc3cccc(C(=O)NCC(F)(F)F)c3)ccc2c1 [Compound 41] | 101 to 500 nM | 10 to 100 nM
NS(=O)(=O)c1ccc(NC(=O)c2cccc(Cn3ccc4cc(-c5c[nH]nc5C(F)(F)F)ccc4c3=O)c2)cc1 [Compound 42] | 101 to 500 nM | 10 to 100 nM
Cn1ccc(NC(=O)c2cccc(Cn3ccc4cc(-c5cn[nH]c5C(F)(F)F)ccc4c3=O)c2)n1 [Compound 43] | 11 to 100 nM | < 10 nM
O=C(NCc1ccc(F)nc1)c1cccc(Cn2ccc3cc(-c4c[nH]nc4C(F)(F)F)ccc3c2=O)c1 [Compound 44] | 11 to 100 nM | < 10 nM
O=C(NC1CCOCC1)c1cccc(Cn2ccc3cc(-c4c[nH]nc4C(F)(F)F)ccc3c2=O)c1 [Compound 45] | 101 to 500 nM | 10 to 100 nM
O=C(NC1CCNCC1)c1cccc(Cn2ccc3cc(-c4c[nH]nc4C(F)(F)F)ccc3c2=O)c1 [Compound 46] | < 10 nM | < 10 nM
CN1CCC(NC(=O)c2cccc(Cn3ccc4cc(-c5c[nH]nc5C(F)(F)F)ccc4c3=O)c2)CC1 [Compound 47] | < 10 nM | < 10 nM
O=C(NC1CCN(C2COC2)CC1)c1cccc(Cn2ccc3cc(-c4c[nH]nc4C(F)(F)F)ccc3c2=O)c1 [Compound 48] | 101 to 500 nM | < 10 nM
O=C(NC1CCN(CC(F)F)CC1)c1cccc(Cn2ccc3cc(-c4c[nH]nc4C(F)(F)F)ccc3c2=O)c1 [Compound 49] | 101 to 500 nM | < 10 nM
O=C(NC1CC1)c1cccc(Cn2ccc3cc(-c4c[nH]nc4C(F)(F)F)ccc3c2=O)c1 [Compound 50] | 101 to 500 nM | 10 to 100 nM
CN1CCC(CNC(=O)c2cccc(Cn3ccc4cc(-c5c[nH]nc5C(F)(F)F)ccc4c3=O)c2)CC1 [Compound 51] | < 10 nM | < 10 nM
O=C(NCC1CCOCC1)c1cccc(Cn2ccc3cc(-c4c[nH]nc4C(F)(F)F)ccc3c2=O)c1 [Compound 52] | 11 to 100 nM | < 10 nM
O=C(NCC1COC1)c1cccc(Cn2ccc3cc(-c4c[nH]nc4C(F)(F)F)ccc3c2=O)c1 [Compound 53] | 11 to 100 nM | < 10 nM
O=C(NCCc1cccc(F)n1)c1cccc(Cn2ccc3cc(-c4c[nH]nc4C(F)(F)F)ccc3c2=O)c1 [Compound 54] | 11 to 100 nM | < 10 nM
O=C(NCC1CCOCC1)c1cccc(Cn2ccc3cc(-c4c[nH]nc4C(F)F)ccc3c2=O)c1 [Compound 55] | 11 to 100 nM | < 10 nM
CN1CCC(CNC(=O)c2cccc(Cn3ccc4cc(-c5c[nH]nc5C(F)F)ccc4c3=O)c2)CC1 [Compound 56] | < 10 nM | < 10 nM
O=C(NCC1CCNCC1)c1cccc(Cn2ccc3cc(-c4c[nH]nc4C(F)F)ccc3c2=O)c1 [Compound 57] | < 10 nM | < 10 nM
O=C(NCC1COC1)c1cccc(Cn2ccc3cc(-c4c[nH]nc4C(F)F)ccc3c2=O)c1 [Compound 58] | 11 to 100 nM | < 10 nM
O=C(NCC1COC1)c1cc(F)cc(Cn2ccc3cc(-c4c[nH]nc4C(F)F)ccc3c2=O)c1 [Compound 59] | 11 to 100 nM | < 10 nM
O=C(NCC1CCOCC1)c1cc(F)cc(Cn2ccc3cc(-c4c[nH]nc4C(F)F)ccc3c2=O)c1 [Compound 60] | 11 to 100 nM | < 10 nM
O=C(NCC1CCNCC1)c1cc(F)cc(Cn2ccc3cc(-c4c[nH]nc4C(F)F)ccc3c2=O)c1 [Compound 61] | < 10 nM | < 10 nM
CN1CCC(CNC(=O)c2cc(F)cc(Cn3ccc4cc(-c5c[nH]nc5C(F)F)ccc4c3=O)c2)CC1 [Compound 62] | < 10 nM | < 10 nM
C[C@H](c1cccc(C(=O)Nc2ccon2)c1)n1cnc2cc(-c3cn[nH]c3C(F)(F)F)ccc2c1=O [Compound 448] | 101 to 500 nM | 
